Legend:
[1] = system: prostate cells LNCAP; assay: Trypan blue cell viability, LNCAP; assay type: cell-based; details: 10 μM, trypan blue exclusion, FIG. 1
Experimental: (§1) Cell viability was assessed by measuring the number of cells alive in samples of two different kind of prostate cells, respectively noted LNCAP and PC3, of breast cells noted MCF7, of colon cells noted HT29, of metastatic melanoma cell lines A375 and of melanoma cells from patients noted GIC. The measure of cell viability as performed by cell counting using the trypan blue exclusion method. Results were expressed as the percentage of cells alive relatively to the number of living cells in the presence of DMSO, which corresponds to the negative control associated to the 100% value. Cells were seeded in 6-well plates (60000 cells/well), depleted and incubated with compounds for the times indicated. Then cells were detached in the presence of 2000 of […] (Thermo) and 2 ml of RPMI 1640 Glutamax (Gibco) was added to the cell solution. 100 of this solution was stained for 1 minute with 100 of 0.4% trypan blue before counting with a Malassez chamber. The effect of compound on cell viability was studied on different types of cells. […] Cancer cells from prostate, breast, colon and melanoma A375 came from cell lines cultures. […] Results are expressed as percentage of cells alive relatively to the number of living cells in the presence of DMSO, which corresponds to the negative control associated to the 100% value. […]

[2] = system: breast cells MCF7; assay: Trypan blue cell viability, MCF7; assay type: cell-based; details: 10 μM, MCF7, trypan blue exclusion, FIG. 1
Experimental: as §1

[3] = system: colon cells HT29; assay: Trypan blue cell viability, HT29; assay type: cell-based; details: 10 μM, HT29, trypan blue exclusion, FIG. 1
Experimental: as §1

[4] = system: metastatic melanoma cell line A375; assay: Trypan blue cell viability, A375; assay type: cell-based; details: 10 μM, A375, trypan blue exclusion, FIG. 1
[5] = system: A375 melanoma cells; assay: A375 melanoma xenograft tumor development in nude mice; assay type: in vivo; details: 0.7 mg/mouse/day over 24 days, athymic nude mice
Experimental: To assess a potential antineoplastic effect of (HA15) and (SR50) in vivo, A375 melanoma cells (2.5×10^6) were injected subcutaneously in 6-week-old female athymic nude mice and treated 5 days later by injection of vehicle (labrafil) or different compounds such as PLX4032, (HA15) and (SR50) (0.7 mg/mouse/day) over a period of 24 days. Inhibitory effect is expressed as the tumor volume (mm^3) on day 8, 11, 15, 18, 22 and 24.
Athymic BALB/C nu/nu mice (Harlan) were used. The animals were 6 weeks old and weighed between 20 and 25 g. The mice were housed in the animal's C3M in a 12 h/12 h cycle. The animals received water and food ad libitum. Mice were first acclimated for one week and then injected with A375 cells (2.5 million cells in 200 μl of PBS) subcutaneously into the right and left sides. Treatment was started eight days after injection of cancer cells (when tumors were visible). The various compounds were diluted in a mixture of Labrafil (90%) (Gattefosse), Tween 80 (1%) and N,N-Dimethylacetamide (9%). Five groups of six mice treated every day intraperitoneally with 0.7 mg/day of PLX4032, SR44 (HA15), SR47 (HA32), SR50 (JG25) or with the mixture of Labrafil in control were defined. Three times a week the tumor size was measured using a caliper. […]

[6] = system: melanoma cells resistant to dabrafenib; assay: Trypan blue cell viability, melanoma cells resistant to dabrafenib; assay type: cell-based, human; details: patient melanoma cells resistant to dabrafenib, FIG. 5
Experimental: The measure of cell viability was performed in the same way as for FIG. 1. Results are expressed as percentage of cells alive relatively to the number of living cells in the presence of DMSO, which is a negative control
Cells were seeded in 6-well plates (60000 cells/well), depleted and incubated with compounds for the times indicated. Then cells were detached in the presence of 2000 of HyQTase (Thermo) and 2 ml of RPMI 1640 Glutamax (Gibco) was added to the cell solution. 100 of this solution was stained for 1 minute with 100 of 0.4% trypan blue before counting with a Malassez chamber.
Melanoma cells resistant to dabrafenib wee prepared from patients treated and presented a resistance to dabrafenib. dabrafenib, [HA15], [SR47] and [SR50] were tested on these resistant cells, in order to determine their activity on cell viability of resistant melanoma cells, as illustrated in FIG. 5.

CC(=O)Nc1nc(-c2cccc(NS(=O)(=O)c3cccc4c(N(C)C)cccc34)c2)cs1 [HA15, N-(4-(3-(5-(dimethylamino)naphthalene-1-sulfonamido)phenyl)thiazol-2-yl)acetamide]
cell viability (cells alive relative to DMSO) [1]: viability greatly reduced
cell viability (cells alive relative to DMSO) [2]: viability greatly reduced
cell viability (cells alive relative to DMSO) [3]: viability greatly reduced
cell viability (cells alive relative to DMSO) [4]: viability greatly reduced
ability of cells to develop visible tumors [5]: markedly attenuated
cell viability of resistant melanoma cells [6]: inhibit cell viability of resistant melanoma cells

Source: US20150284347A1, “NEW BENZENE SULFONAMIDE THIAZOLE COMPOUNDS” (INSERM (INSTITUT NATIONAL DE LA SANTÉ ET DE LA RECHERCHE …, priority 2012, published 2015)
